{
  "source": "paper PMC9374667",
  "about": "(Communications Biology, 2022)",
  "format_in_all_cases": "cell-based, Murine",
  "key": {"IKKε [1]": {"biological_target": "T1, IKKε (Mus musculus, UniProt Q9R0T8)", "T1 sequence (Q9R0T8 1-717)": "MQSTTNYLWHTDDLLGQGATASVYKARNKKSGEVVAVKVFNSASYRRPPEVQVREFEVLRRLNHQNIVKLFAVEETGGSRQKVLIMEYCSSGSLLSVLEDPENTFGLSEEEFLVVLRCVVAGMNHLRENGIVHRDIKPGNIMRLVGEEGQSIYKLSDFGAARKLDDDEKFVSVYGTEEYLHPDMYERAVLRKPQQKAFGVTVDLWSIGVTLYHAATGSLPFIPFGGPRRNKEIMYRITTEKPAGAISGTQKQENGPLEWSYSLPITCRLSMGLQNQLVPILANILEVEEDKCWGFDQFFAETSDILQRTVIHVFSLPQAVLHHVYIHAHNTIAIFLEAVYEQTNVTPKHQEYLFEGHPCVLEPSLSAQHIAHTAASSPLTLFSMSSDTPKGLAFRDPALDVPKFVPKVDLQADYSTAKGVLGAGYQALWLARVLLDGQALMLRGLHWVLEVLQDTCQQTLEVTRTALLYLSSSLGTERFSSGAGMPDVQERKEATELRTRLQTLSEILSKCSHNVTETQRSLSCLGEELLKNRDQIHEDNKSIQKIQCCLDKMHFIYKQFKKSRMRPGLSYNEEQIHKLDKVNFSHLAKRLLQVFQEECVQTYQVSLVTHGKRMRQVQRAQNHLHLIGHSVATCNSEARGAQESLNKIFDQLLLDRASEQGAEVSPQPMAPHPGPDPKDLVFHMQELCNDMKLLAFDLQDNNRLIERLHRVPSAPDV", "experiment": "3T3-L1 adipocytes transfected with IKKε plasmid (western blotting, cAMP, glycerol, ISO)", "set-up": "endogenous in cells; host or cells: differentiated 3T3-L1 adipocytes; IKKε (western blotting, Figure 8h) / UCP1 (western blotting, Figure 8i) / UCP1 (western blotting, Figure 8j): scale not given here; cAMP levels (Figure 8k) / Glycerol release (Figure 8l): unit not given here", "description": "(§1) Small interference RNA transfection (siRNA) was performed using 4 μM TBK1 siRNA (siTBK1) or 4 μM […]ε) or corresponding NC siRNA (siNC). The epididymal adipose tissue was dissected, the fresh adipose tissue was weighed and rapidly rinsed with PBS. The adipose tissue was cut and incubated with isoproterenol (10 μM) for 2 h, and homogenized in a cold cleavage buffer to prepare the adipose tissue homogenate. Then the homogenate was centrifuged at 12,000 × g at 4 °C for 15 min, and the supernatant was collected. […] Then the cells were lysed in a petri dish, scraped off, and centrifuged at 12,000 × g at 4 °C for 15 min before the supernatant was collected. […] And concentrations were further standardized according to protein concentration. The adipose tissue or 3T3-L1 adipocytes were homogenized by ultrasound in an ice-cold RIPA lysis buffer containing 1% PMSF and centrifuged at 12,000 × g at 4°C for 15 min to collect the supernatant. The BCA protein assay kit (Beyotime, Shanghai, China) was used to detect the total protein concentration. Proteins (20-30 μg) of the sample were separated by 10% SDS-PAGE gel and transferred onto polyvinylidene difluoride (PVDF) membranes. Then the PVDF membranes were blocked in 5% skim milk powder in TBS containing 1% Tween-20 (TBST) for 2 h at room temperature and washed with TBST for 3 times. […] After washing, the membranes were incubated with horseradish peroxidase-conjugated secondary antibodies (in 5% skim milk powder) for 1 h at room temperature. Finally, the membranes were treated with enhanced chemiluminescence agents (Tanon, Shanghai, China) and the signals were monitored using the Tanon 5200 multi chemiluminescent imaging system (Tanon, Shanghai, China)."}, "cAMP, glycerol release": {"test_system": "cAMP, glycerol release", "experiment": "cAMP levels and glycerol release in TNF-α induced 3T3-L1 adipocytes (isoproterenol)", "description": "The epididymal adipose tissue was dissected, the fresh adipose tissue was weighed and rapidly rinsed with PBS. The adipose tissue was cut and incubated with isoproterenol (10 μM) for 2 h, and homogenized in a cold cleavage buffer to prepare the adipose tissue homogenate. Then the homogenate was centrifuged at 12,000 × g at 4 °C for 15 min, and the supernatant was collected. […] Then the cells were lysed in a petri dish, scraped off, and centrifuged at 12,000 × g at 4 °C for 15 min before the supernatant was collected. […] And concentrations were further standardized according to protein concentration."}, "IKKε [2]": {"biological_target": "T1, IKKε", "experiment": "IKKε-knockdown 3T3-L1 adipocytes (siRNA; western blotting, cAMP, glycerol, ISO)", "set-up": "endogenous in cells; host or cells: differentiated 3T3-L1 adipocytes", "conditions": "ISO +, 10μM BJ -", "description": "as §1"}},
  "note": "“And” between values parts separate entries of the source, which are not always exact repeats. Identical values can stand only once.",
  "data": [
    {"smiles": "CC(C)NCC(O)c1ccc(O)c(O)c1", "note": "(stereo not shown) [ISO]", "values": [
      {"measurement": "Glycerol release (Figure 8l)", "setting": "IKKε [1]; ISO", "result": "108.886 and 102.136 and 112.261"},
      {"measurement": "UCP1 (western blotting, Figure 8j)", "setting": "IKKε [1]; ISO", "result": "0.8258 and 0.5499 and 0.929"},
      {"measurement": "cAMP levels (Figure 8k)", "setting": "IKKε [1]; ISO", "result": "0.2652 and 0.258 and 0.2726"},
      {"measurement": "Glycerol release (Figure 8l)", "setting": "IKKε [1]; ISO+IKKε", "result": "84.4172 and 90.3234 and 97.917"},
      {"measurement": "UCP1 (western blotting, Figure 8j)", "setting": "IKKε [1]; ISO+IKKε", "result": "0.3959 and 0.3641 and 0.3989"},
      {"measurement": "cAMP levels (Figure 8k)", "setting": "IKKε [1]; ISO+IKKε", "result": "0.1824 and 0.1892 and 0.1882"},
      {"measurement": "Glycerol release in differentiated 3T3-L1 adipocytes induced by TNF-α", "setting": "cAMP, glycerol release; ISO", "result": "113.104 µmol/L and 118.167 µmol/L and 114.792 µmol/L"},
      {"measurement": "cAMP levels in differentiated 3T3-L1 adipocytes induced by TNF-α", "setting": "cAMP, glycerol release; ISO", "result": "0.361 pmol/mg protein and 0.3597 pmol/mg protein and 0.3681 pmol/mg protein"},
      {"measurement": "Glycerol release in differentiated 3T3-L1 adipocytes induced by TNF-α", "setting": "cAMP, glycerol release; ISO+TNF-α(50ng/ml)", "result": "103.823 µmol/L and 102.136 µmol/L and 105.511 µmol/L"},
      {"measurement": "cAMP levels in differentiated 3T3-L1 adipocytes induced by TNF-α", "setting": "cAMP, glycerol release; ISO+TNF-α(50ng/ml)", "result": "0.2016 pmol/mg protein and 0.1968 pmol/mg protein and 0.1945 pmol/mg protein"},
      {"measurement": "Glycerol (Figure 9l)", "setting": "IKKε [2]; siIKKϵ +", "result": "169.673 µmol/L and 171.907 µmol/L and 177.534 µmol/L"},
      {"measurement": "UCP1 (western blotting, Figure 9J)", "setting": "IKKε [2]; siIKKϵ +", "result": "0.6893 and 0.7105 and 0.7747"},
      {"measurement": "cAMP (Figure 9k)", "setting": "IKKε [2]; siIKKϵ +", "result": "0.3589 pmol/mg protein and 0.3755 pmol/mg protein and 0.3876 pmol/mg protein and 0.3693 pmol/mg protein and 0.3629 pmol/mg protein and 0.3678 pmol/mg protein"},
      {"measurement": "Glycerol (Figure 9l)", "setting": "IKKε [2]; siIKKϵ -", "result": "104.409 µmol/L and 108.54 µmol/L and 120.987 µmol/L"},
      {"measurement": "UCP1 (western blotting, Figure 9J)", "setting": "IKKε [2]; siIKKϵ -", "result": "0.5841 and 0.5565 and 0.4767"},
      {"measurement": "cAMP (Figure 9k)", "setting": "IKKε [2]; siIKKϵ -", "result": "0.2714 pmol/mg protein and 0.2836 pmol/mg protein and 0.2536 pmol/mg protein and 0.2485 pmol/mg protein and 0.2952 pmol/mg protein"}
    ]}
  ]
}
